Structure (SMILES)	melting point [°C]
O=C(O)CCCCc1ccccc1CNC(=O)C1Cc2ccccc2N1S(=O)(=O)c1ccc(-c2cccc(C(F)(F)F)c2)cc1 (stereo unspecified)	98 to 99
CC(C(=O)N1c2ccccc2N(C)C(=O)c2cnc(-c3ccccc3)nc21)N1CCNCC1 (stereo unspecified)	197
COCC(=O)Nc1cccc2c1C(=O)N(C1(C)CCC(=O)NC1=O)C2=O (stereo unspecified)	244 to 246
CC1(C)OC(=C(C#N)C#N)C(C#N)=C1c1ccc(C#C[Si](C)(C)C)cc1	201
O=C1CCC(C(=O)c2ccc(Cl)cc2)N1 (stereo unspecified)	174
CCSc1cc(C)nc(SCC)c1NC(=O)CN1CCN(CCSc2nc3cccc(C(F)(F)F)c3o2)CC1	107 to 108
COc1cccc(SSc2cccc(OC)c2S(N)(=O)=O)c1S(N)(=O)=O	263
CCCCCCCCCC=C1OC(=O)N(CCCCSc2cccc3nccn23)C1=O	46 to 48
Cc1[nH]cnc1CSCCCN=C(NC#N)NCCc1c[nH]cn1	135 to 137
COC(=O)[C@@H]1Cc2cc(OC)c(O)cc2C(=O)N1	280 to 285
Cc1c(N2CC3(CC3)[C@](C)(N)C2)ccc2c(=O)c(C(=O)O)cn([C@@H]3C[C@@H]3F)c12	157 to 159
Cc1cccc(COCCCC(=O)O)c1	53 to 54
CC1=C(Cc2cccc(Br)c2)C(=O)C2C=CC=CC2C1=O (stereo unspecified)	108 to 109
CCCCCCCC(N)=NO	73 to 75
N#CC(=NO)c1c(Cl)cccc1Cl	94 to 96
O=C1c2cc(Cl)ccc2-n2c1nc1ccccc1c2=O	295 to 296
COC1CCCNC(=O)C1 (stereo unspecified)	70 to 73
CC1NC(=O)NN=C1c1ccc(OCC(=O)NCCN2CCNCC2)c(Cl)c1 (stereo unspecified)	208 to 210
Cc1cc(C)c2c(n1)CC(c1ccccc1)CC2=O (stereo unspecified)	97 to 99
CC(C)(C)C(=O)C=Cc1cnc2ccccc2c1	146 to 148
O=c1n(CC2CO2)c(=O)n(CC2CO2)n1CC1CO1 (stereo unspecified)	93 to 94

Structure (SMILES)	melting point [°C]
CC(=O)c1cc(Cl)c(N)c(C#N)c1F	180 to 182
Cc1ccc(C)n1-c1cc2[nH]c(=O)c(=O)n(CC(=O)NCc3ccccc3)c2cc1Cl	244
Cc1ccccc1C(=O)Nc1nc(-c2ccccc2)c(-c2ccc(=O)n(C(C)C)n2)s1	221 to 222
Cc1ccc(Sc2ccc(C)cc2)cc1	56.5
O=C1Cc2ccccc2C1(Cc1ccncc1)Cc1ccncc1	95 to 96
CCCCC[C@H]1CC[C@H](c2ncc([C@H]3CC[C@H](CCC)CC3)cn2)CC1	98
NC(=O)c1cccc(C2OCCO2)c1	92 to 94
Cc1nn(CC(F)(F)COC(=O)N(C)C)c(-c2ccc(F)cc2)c1-c1ccc2c(c1)NC(=O)CO2	146
Clc1ncccc1-c1ncoc1-c1cccnc1Cl	157 to 158
CSCC[C@H](NC(=O)Cc1cc(F)cc(F)c1)C(=O)N[C@@H]1C(=O)Nc2ccccc2S[C@@H]1c1ccccc1	85 to 90
CC(=O)Nc1c(-c2ccccc2)nn2ccccc12	188 to 189
Nc1c(C(=O)NC(Cc2ccc(OCc3ccccc3)cc2)C(=O)O)oc2cc(-c3ccc(Cl)cc3)ccc12 (stereo unspecified)	250
COc1ccc(Oc2ncnc(-c3ccc(C(F)(F)F)cc3F)c2N)cc1	129 to 130
CC(=O)C(C)Oc1cc(-n2c(=O)cc(C(F)(F)F)[nH]c2=O)c(F)cc1Br (stereo unspecified)	183
COc1ccc(C(=O)Nc2ccc(Cl)c(Cl)c2)cc1NCc1cccs1	178 to 180
COc1cc(C(=O)c2ccccc2[N+](=O)[O-])c(Br)cn1	128 to 131
CN(O)C(=O)NCCc1ccc2c(c1)OCO2	99 to 100
CCOC(=O)c1ncc2[nH]c3ccccc3c2c1C	235 to 239
Cc1ccc(C(=O)C2=C(O)C(=O)N(c3ccc(C(F)(F)F)cn3)C2c2ccc(C(C)C)cc2)cc1 (stereo unspecified)	255 to 257
C/C=C/c1cc(OC)c2oc(-c3ccc(O)c(OC)c3)c(CO)c2c1	175 to 179

From a melting point compilation (Tetko et al.; mined from patent text by program, amines drawn as free bases though some values may be those of a salt)
